According to article PMC7714489 (Journal of medicinal chemistry, 2015):

Key:
Type in all cases: cell-based
[1] = tested on: thymidine uptake; test: Effect on thymidine uptake; conditions: 100 μM; data not shown
[2] = tested on: cellular GAPDH levels; test: Effect on cellular GAPDH levels; conditions: 100 μM; data not shown
[3] = tested on: PC3 cells (a human prostate cancer cell line); test: Toxicity in PC3 cells; conditions: 100 μM; data not shown
[4] = tested on: HepG2 cells; test: Lactate production assay; conditions: 10 μM, HepG2, 14 days
[5] = tested on: subgenomic HCV replicon in Huh-7 cells; test: HCV subgenomic replicon assay in Huh-7 cells; conditions: Huh-7 replicon

CCOC(=O)CCc1ccccc1O[P@@](=O)(N[C@@H](C)C(=O)OCC)OC[C@H]1O[C@@H](n2cnc3c(N)nc(N)nc32)[C@](C)(O)C1O (stereo in doubt) [15b(Rp), Ethyl 3-(2-(((R)-(((2R,3R,4R,5R)-5-(2,6-Diamino-9H-purin-9-yl)-3,4-dihydroxy-4-methyltetrahydrofuran-2-yl)methoxy)(((S)-1-ethoxy-1-oxopropan-2-yl)amino)phosphoryl)oxy)phenyl)-propanoate]
effect on thymidine uptake [1]: did not observe | effect on cellular GAPDH levels [2]: did not observe | toxicity in PC3 cells [3]: did not observe any toxicity

COc1nc(N)nc2c1ncn2[C@@H]1O[C@H](COP(=O)(N[C@@H](C)C(=O)OCC(C)(C)C)Oc2cccc3ccccc23)[C@@H](O)[C@@]1(C)O (stereo partly drawn) [compound 1, reference compound]
cell death in lactic acid experiment [4]: excessive cell death | inhibition of HCV RNA replication (in words) [5]: nanomolar potency

CCOC(=O)CCc1ccccc1OP(=O)(OC[C@H]1O[C@@H](n2cnc3c(N)nc(N)nc32)[C@](C)(O)[C@@H]1O)Oc1ccccc1CCC(=O)OCC [compound 18]
inhibition of HCV RNA replication (in words) [5]: inactive
